ChEMBL document CHEMBL3272130, “Synthesis and hypotensive activity of some cyclopentano-1,2,3,4-tetrahydroisoquinolines” (J Med Chem, 1977)

Legend:
Rattus norvegicus [1] = experiment: Hypotensive activity in deoxycorticosterone acetate treated hypertensive CD rat assessed as change in blood pressure at 10 mg, ip after 2 hrs relative to control; assay type: functional
Rattus norvegicus [2] = experiment: Hypotensive activity in deoxycorticosterone acetate treated hypertensive CD rat assessed as change in blood pressure at 10 mg, ip after 4 hrs relative to control; assay type: functional
Rattus norvegicus [3] = experiment: Hypotensive activity in deoxycorticosterone acetate treated hypertensive CD rat assessed as change in blood pressure at 10 mg, ip after 24 hrs relative to control; assay type: functional
Rattus norvegicus [4] = experiment: Hypotensive activity in deoxycorticosterone acetate treated hypertensive CD rat assessed as change in blood pressure at 5 mg, ip after 1 hr relative to control; assay type: functional
Rattus norvegicus [5] = experiment: Hypotensive activity in deoxycorticosterone acetate treated hypertensive CD rat assessed as change in blood pressure at 5 mg, ip after 2 hrs relative to control; assay type: functional
Rattus norvegicus [6] = experiment: Hypotensive activity in deoxycorticosterone acetate treated hypertensive CD rat assessed as change in blood pressure at 5 mg, ip after 4 hrs relative to control; assay type: functional
Rattus norvegicus [7] = experiment: Hypotensive activity in deoxycorticosterone acetate treated hypertensive CD rat assessed as change in blood pressure at 5 mg, ip after 24 hrs relative to control; assay type: functional
Rattus norvegicus [8] = experiment: Cardiovascular activity in deoxycorticosterone acetate treated hypertensive CD rat assessed as change in heart rate at 10 mg, ip after 2 hrs relative to control; assay type: ADME, organism-based; settings: in vivo
Rattus norvegicus [9] = experiment: Cardiovascular activity in deoxycorticosterone acetate treated hypertensive CD rat assessed as change in heart rate at 10 mg, ip after 4 hrs relative to control; assay type: ADME, organism-based; settings: in vivo
Rattus norvegicus [10] = experiment: Cardiovascular activity in deoxycorticosterone acetate treated hypertensive CD rat assessed as change in heart rate at 10 mg, ip after 24 hrs relative to control; assay type: ADME, organism-based; settings: in vivo
Rattus norvegicus [11] = experiment: Cardiovascular activity in deoxycorticosterone acetate treated hypertensive CD rat assessed as change in heart rate at 5 mg, ip after 1 hr relative to control; assay type: ADME, organism-based; settings: in vivo
Rattus norvegicus [12] = experiment: Cardiovascular activity in deoxycorticosterone acetate treated hypertensive CD rat assessed as change in heart rate at 5 mg, ip after 2 hrs relative to control; assay type: ADME, organism-based; settings: in vivo
Rattus norvegicus [13] = experiment: Cardiovascular activity in deoxycorticosterone acetate treated hypertensive CD rat assessed as change in heart rate at 5 mg, ip after 4 hrs relative to control; assay type: ADME, organism-based; settings: in vivo
Rattus norvegicus [14] = experiment: Cardiovascular activity in deoxycorticosterone acetate treated hypertensive CD rat assessed as change in heart rate at 5 mg, ip after 24 hrs relative to control; assay type: ADME, organism-based; settings: in vivo
[15] = Toxicity in ip dosed Swiss-Webster mouse after 24 hrs; assay type: organism-based; settings: in vivo
Rattus norvegicus [16] = experiment: Hypotensive activity in deoxycorticosterone acetate treated hypertensive CD rat assessed as change in blood pressure at 4 mg, ip after 1 hr relative to control; assay type: functional
Rattus norvegicus [17] = experiment: Hypotensive activity in deoxycorticosterone acetate treated hypertensive CD rat assessed as change in blood pressure at 4 mg, ip after 2 hrs relative to control; assay type: functional
Rattus norvegicus [18] = experiment: Hypotensive activity in deoxycorticosterone acetate treated hypertensive CD rat assessed as change in blood pressure at 4 mg, ip after 4 hrs relative to control; assay type: functional
Rattus norvegicus [19] = experiment: Hypotensive activity in deoxycorticosterone acetate treated hypertensive CD rat assessed as change in blood pressure at 4 mg, ip after 24 hrs relative to control; assay type: functional
Rattus norvegicus [20] = experiment: Cardiovascular activity in deoxycorticosterone acetate treated hypertensive CD rat assessed as change in heart rate at 4 mg, ip after 1 hr relative to control; assay type: ADME, organism-based; settings: in vivo
Rattus norvegicus [21] = experiment: Cardiovascular activity in deoxycorticosterone acetate treated hypertensive CD rat assessed as change in heart rate at 4 mg, ip after 2 hrs relative to control; assay type: ADME, organism-based; settings: in vivo
Rattus norvegicus [22] = experiment: Cardiovascular activity in deoxycorticosterone acetate treated hypertensive CD rat assessed as change in heart rate at 4 mg, ip after 4 hrs relative to control; assay type: ADME, organism-based; settings: in vivo
Rattus norvegicus [23] = experiment: Cardiovascular activity in deoxycorticosterone acetate treated hypertensive CD rat assessed as change in heart rate at 4 mg, ip after 24 hrs relative to control; assay type: ADME, organism-based; settings: in vivo
Rattus norvegicus [24] = experiment: Hypotensive activity in deoxycorticosterone acetate treated hypertensive CD rat assessed as change in blood pressure at 25 mg, ip after 1 hr relative to control; assay type: functional
Rattus norvegicus [25] = experiment: Hypotensive activity in deoxycorticosterone acetate treated hypertensive CD rat assessed as change in blood pressure at 25 mg, ip after 2 hrs relative to control; assay type: functional
Rattus norvegicus [26] = experiment: Hypotensive activity in deoxycorticosterone acetate treated hypertensive CD rat assessed as change in blood pressure at 25 mg, ip after 4 hrs relative to control; assay type: functional
Rattus norvegicus [27] = experiment: Hypotensive activity in deoxycorticosterone acetate treated hypertensive CD rat assessed as change in blood pressure at 25 mg, ip after 24 hrs relative to control; assay type: functional
Rattus norvegicus [28] = experiment: Cardiovascular activity in deoxycorticosterone acetate treated hypertensive CD rat assessed as change in heart rate at 25 mg, ip after 1 hr relative to control; assay type: ADME, organism-based; settings: in vivo
Rattus norvegicus [29] = experiment: Cardiovascular activity in deoxycorticosterone acetate treated hypertensive CD rat assessed as change in heart rate at 25 mg, ip after 2 hrs relative to control; assay type: ADME, organism-based; settings: in vivo
Rattus norvegicus [30] = experiment: Cardiovascular activity in deoxycorticosterone acetate treated hypertensive CD rat assessed as change in heart rate at 25 mg, ip after 4 hrs relative to control; assay type: ADME, organism-based; settings: in vivo
Rattus norvegicus [31] = experiment: Cardiovascular activity in deoxycorticosterone acetate treated hypertensive CD rat assessed as change in heart rate at 25 mg, ip after 24 hrs relative to control; assay type: ADME, organism-based; settings: in vivo

COc1c2c(c3c(c1OC)CCNC3)CCC2
Activity (Rattus norvegicus [1]): -13.2% | Activity (Rattus norvegicus [2]): 2.4% | Activity (Rattus norvegicus [3]): 1% | Activity (Rattus norvegicus [4]): -9.5% | Activity (Rattus norvegicus [5]): -3% | Activity (Rattus norvegicus [6]): -6.5% | Activity (Rattus norvegicus [7]): 1.8% | Activity (Rattus norvegicus [8]): 4.7% | Activity (Rattus norvegicus [9]): 9% | Activity (Rattus norvegicus [10]): -2.6% | Activity (Rattus norvegicus [11]): -5.2% | Activity (Rattus norvegicus [12]): -1.4% | Activity (Rattus norvegicus [13]): -8.5% | Activity (Rattus norvegicus [14]): -12.2% | LD50 at 24 h [15]: 25 mg/kg

Br.COc1c2c(c3c(c1OC)CCN(C)C3)CCC2
Activity (Rattus norvegicus [16]): 13% | Activity (Rattus norvegicus [17]): 12.2% | Activity (Rattus norvegicus [18]): -2.6% | Activity (Rattus norvegicus [19]): 19.7% | Activity (Rattus norvegicus [20]): 13.2% | Activity (Rattus norvegicus [21]): 11.2% | Activity (Rattus norvegicus [22]): -0.4% | Activity (Rattus norvegicus [23]): 1.8% | LD50 at 24 h [15]: 10 mg/kg

Br.CCC(C)CN1CCc2c(c3c(c(OC)c2OC)CCC3)C1 (stereo not drawn)
Activity (Rattus norvegicus [24]): -17.2% | Activity (Rattus norvegicus [25]): -12.6% | Activity (Rattus norvegicus [26]): -6.7% | Activity (Rattus norvegicus [27]): 1.3% | Activity (Rattus norvegicus [28]): 13.7% | Activity (Rattus norvegicus [29]): 11.8% | Activity (Rattus norvegicus [30]): 5% | Activity (Rattus norvegicus [31]): -0.3% | LD50 at 24 h [15]: 178 mg/kg
